This test has as its system P. aeruginosa. Put plainly: Bacterial suspension assay (OD measurement). The format is cell-based. The following applies: tetracycline 10 and 20 μg/mL; 24 h.

Method: Gels were prepared in 24-well sterile Nunc plates. 10 mM AgNO3 solution in 100 mM Tris-buffer (pH=8.5) was freshly prepared and used to dissolve the peptide to a final concentration of 10 mg/mL. The resultant solution was sonicated for 15-20 s to ensure complete dissolution of the peptide. 400 μL of the peptide solution was then aliquoted into each well and allowed to spread evenly on the surface. […] Prior to use, the plates were exposed to short-wavelength UV at 254 nm for 5 minutes to allow Ag NP formation. For the control gels, 100 mM Tris buffer without AgNO3 was used for Ac-LK6—NH2 hydrogel preparation.
50 μL of bacterial stock was inoculated overnight in 5 mL of Luria-Bertani (LB) medium (pH=7.5), with constant shaking at 300 rpm at 37° C. The log-phase bacterial solution was then diluted in LB medium to obtain an O.D. of 0.07 (at 600 nm). This was used as the starting bacterial solution (0 hr reading) and 400 μL of the solution was dispensed into each well of the 24-well plate containing the hydrogels. […] Ac-LK6—NH2 hydrogels without Ag NPs and bacteria-only solutions served as the negative controls. […] For the O.D. readings, 100 μL of the bacterial solution was transferred into a transparent 96 well Nunc plate just before measurement, to prevent the hydrogel layer from influencing absorbance measurements. […]

For the compound `CN(C)[C@@H]1C(O)=C(C(N)=O)C(=O)[C@@]2(O)C(O)=C3C(=O)c4c(O)cccc4[C@@](C)(O)[C@H]3C[C@@H]12` [tetracycline, Tetracycline], the “growth inhibition compared to the untreated control” value is “about 50%”.

(Values after patent US20160271178A1, “NANOPARTICLE-CONTAINING HYDROGELS” (priority 2013, published 2016).)
